Laboratory results: ChEMBL document CHEMBL5321227, “Lysosome-targeting phenalenones as efficient type I/II photosensitizers for anticancer photodynamic therapy” (Eur J Med Chem, 2023)
Active and inactive are the calls of the source. No cut-off for these calls is given here.

Legend:
[1] = Drug metabolism in carboxylesterase (unknown origin) assessed as formation of active photosensitizer 6-amino-5-iodo-1H-phenalen-1-one at 10 uM under by LC-MS/MS analysis assay; type: ADME; details: human
[2] = Drug metabolism in human MDA-MB-231 cells assessed as increase in SR expression at 5 uM incubated for 2 hrs by flow cytometry analysis; type: ADME, cell-based; details: mda-mb-231, 2 h
[3] = test system: 4T1; experiment: Anticancer activity against mouse 4T1 cells assessed as reduction in cell viability at 0.01 to 10 uM incubated for 24 hrs by CCK-8 assay; type: functional, cell-based; details: dose 0.01-10 µM
[4] = test system: MDA-MB-231; experiment: Anticancer activity against human MDA-MB-231 cells assessed as number of dead cells at 2.5 uM incubated for 12 hrs by calcein-AM and propidium iodide staining based flow cytometry; type: functional, cell-based
[5] = Drug uptake BALB/c mouse xenografted with mouse 4T1 cells assessed as increase in fluorescence signal in tumor at 5 mg/kg,IT(Intratumoral) and measured for 6 to 24 hrs by fluorescence imaging analysis; type: ADME, organism-based, Neoplasm; details: in vivo, other, time 6-24 hrs
[6] = Drug uptake in liver of BALB/c mouse xenografted with mouse 4T1 cells at 5 mg/kg,IT(Intratumoral) and measured after 6 hrs by fluorescence imaging analysis; type: ADME, organism-based; details: in vivo, other
[7] = test system: 4T1; experiment: Antitumor activity against mouse 4T1 cells xenografted in BALB/c mouse assessed as tumor growth inhibition at 5 mg/kg,IT(Intratumoral) for 14 days followed by photoirradiation with 500 to 700nm light (0.5 W) for 6 hrs; type: functional, organism-based; details: time 14.25 day
[8] = Toxicity in BALB/c mouse xenografted with mouse 4T1 cells assessed as tissue destruction with large spaces in tumor at 5 mg/kg,IT(Intratumoral) for 14 days followed by photoirradiation with 500 to 700nm light (0.5 W) for 6 hrs by Hematoxylin and Eosin staining based microscopy; type: organism-based; details: in vivo, other, 342 h, time 14.25 day
[9] = Toxicity in BALB/c mouse xenografted with mouse 4T1 cells assessed as tissue destruction with large spaces in liver at 5 mg/kg,IT(Intratumoral) for 14 days followed by photoirradiation with 500 to 700nm light (0.5 W) for 6 hrs by Hematoxylin and Eosin staining based microscopy; type: organism-based; details: in vivo, other, 342 h, time 14.25 day
[10] = Toxicity in BALB/c mouse xenografted with mouse 4T1 cells assessed as tissue destruction with large spaces in spleen at 5 mg/kg,IT(Intratumoral) for 14 days followed by photoirradiation with 500 to 700nm light (0.5 W) for 6 hrs by Hematoxylin and Eosin staining based microscopy; type: organism-based; details: in vivo, other, 342 h, time 14.25 day
[11] = Toxicity in BALB/c mouse xenografted with mouse 4T1 cells assessed as histopathological lesion in heart at 5 mg/kg,IT(Intratumoral) for 14 days by Hematoxylin and Eosin staining based microscopy; type: organism-based; details: in vivo, other, 336 h, time 14 day
[12] = Toxicity in BALB/c mouse xenografted with mouse 4T1 cells assessed as histopathological lesion in spleen at 5 mg/kg,IT(Intratumoral) for 14 days by Hematoxylin and Eosin staining based microscopy; type: organism-based; details: in vivo, other, 336 h, time 14 day

- Drug metabolism [2]: Metabolite_Detected
- Drug uptake [5]: Not Active
- Drug uptake [6]: Active
SMILES: O=C(CCl)Nc1c(I)cc2c3c(cccc13)C(=O)C=C2
- Drug metabolism [1]: Metabolite_Detected
- Activity [3]: Active
- Activity [4]: inactive
- Activity [7]: Active
- Activity [8]: Toxic
- Activity [9]: Toxic
- Activity [10]: Toxic
- Activity [11]: Non-Toxic
- Activity [12]: Non-Toxic
